Data reported in patent publication US20040265846A1, “Adrenergic receptors” (DUKE UNIVERSITY, priority 2002, published 2004).
Substitutions are numbered along the chain they refer to. Where two headings read alike, the source gives them in different places.

Key:
human α1aAR SNP V311I = target: T1, human α1aAR SNP V311I (Homo sapiens, UniProt P35348, V311I); assay: Competition binding vs [125I]HEAT, SNP V311I; conditions: high expressing clone
T1 construct: expressed in transfected cells
T1 sequence (P35348 1-466 V311I): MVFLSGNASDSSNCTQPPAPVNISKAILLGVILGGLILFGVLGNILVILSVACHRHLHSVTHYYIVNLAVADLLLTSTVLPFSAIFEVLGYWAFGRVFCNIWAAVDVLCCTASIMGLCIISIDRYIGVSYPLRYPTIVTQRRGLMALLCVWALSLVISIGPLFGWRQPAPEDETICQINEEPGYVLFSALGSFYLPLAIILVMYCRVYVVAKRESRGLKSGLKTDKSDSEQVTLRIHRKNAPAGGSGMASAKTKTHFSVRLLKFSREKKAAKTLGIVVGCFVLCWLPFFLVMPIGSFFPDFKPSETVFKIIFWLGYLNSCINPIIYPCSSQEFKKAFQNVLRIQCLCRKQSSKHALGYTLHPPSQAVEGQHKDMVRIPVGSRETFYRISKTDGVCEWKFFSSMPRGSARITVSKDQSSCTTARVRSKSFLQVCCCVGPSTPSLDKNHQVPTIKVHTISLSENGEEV

[1] = test system: α1aAR F163 (TM4) / F187 (TM5) mutants; conditions: Waugh et al 2000; cited from earlier work
[2] = test system: α1aAR F308 / F312 substituted receptors; conditions: cited from earlier work
human α1aAR SNPs [3] = assay: [125I]HEAT saturation binding on membranes, receptors containing each SNP; conditions: expression 1.53-2.37 pmol/mg
Procedure: In Vitro Site-Directed Mutagenesis in the aoclar. Site-directed mutagenesis was utilized to introduce mutations corresponding to each SNP in hemagglutinin-tagged human α1aAR previously placed in the expression vector pcDNA3 (Price et al, J. Biol. Chem. 277:9570-9579 (2002)). Mutagenesis was performed using the QuickChange™ Site-Directed Mutagenesis Kit (Stratagene) as recommended by the manufacture. All mutations were confirmed by DNA sequencing (Duke University DNA Analysis Facility).
(§1) Cell Culture and Transfection. Rat-1 fibroblasts were cultured in DMEM supplemented with 10% FBS at 37° C. Cells were transfected with either the WT (reference sequence with all major alleles, GenBank accession number L31774) or mutated α1aAR in pcDNA3 by calcium phosphate precipitation. For stable transfection, clones resistant to G418 (0.8 mg/ml) were isolated and tested for receptor expression. Two different expression levels were chosen for receptor functional investigation. Low receptor expression level was defined a priori as <0.5 pmol/mg total protein, while high-level expression was defined as >1.5 pmol/mg protein.
(§2) Membrane Preparation and Radioligand Binding. Rat-1 membrane preparation and ligand binding assay using the α1AR selective antagonist, [^125I]HEAT, were performed as previously described (Schwinn et al, J. Pharmacol. Exp. Ther. 272:134-142 (1995)).
Pharmacological Characterization. […]

human α1aAR SNPs [4] = conditions: receptors containing any SNP, high expressing clones
human α1aAR SNPs [5] = assay: NE-induced desensitization of IP response, receptors with any SNP; assay type: cell-based; conditions: high or low expression level
Procedure: (§3) The extent of desensitization was expressed as percent of reduction of IP response in pretreated cells compared with the response in naive cells. n=3-6. […] High-expression clones. […] Low-expression clones. Measurement of Intracellular Inositol Phosphate (IP) Production. […] Measurement of intracellular IP production was performed under serum-free conditions. […] For all experiments, membranes were collected for receptor quantititation and cells were counted at the time of assay.

human α1aAR WT [6] = target: T2, human α1aAR WT (Homo sapiens, UniProt P35348); assay: NE-induced desensitization of IP response, WT; assay type: cell-based; conditions: 10 min 10 μM NE pretreatment, compared with unpretreated
T2 construct: expressed in transfected cells
T2 sequence (P35348 1-466): T1 sequence (P35348 1-466 V311I) with I311V
Procedure: as §3

human α1aAR SNPs [7] = assay: NE-stimulated IP production, transiently expressed polymorphic receptors; assay type: cell-based; conditions: any polymorphic receptor, transient expression 1.30-1.98 pmol/mg protein
Procedure: Effect of human α1aAR SNPs on IP signaling in transiently transfected rat-1 fibroblasts (receptor densities 1.30-1.98 pmol/mg protein). […] For each construct, IP assay, binding assay and cell number were measured in paralleled plates. […] Basal IP release.
Transient transfection was also used to express receptors for binding and IP experiments in order to verify consistent behavior using alternative methods of protein expression.
Measurement of Intracellular Inositol Phosphate (IP) Production. Rat-1 cells expressing either the WT or mutated α1aAR grown on 12-well plates were labeled with [^3H]inositol for 20-24 h with 2.5 μCi/ml in complete DMEM. Measurement of intracellular IP production was performed under serum-free conditions. […] For all experiments, membranes were collected for receptor quantititation and cells were counted at the time of assay.

human α1aAR WT [8] = target: T2, human α1aAR WT; assay: [125I]HEAT saturation binding on membranes, WT high expressing clone; conditions: membranes from WT α1aAR high expressing clone, rat-1 fibroblasts, 1.77±0.24 pmol/mg protein
Procedure: as §1, §2
Pharmacological Characterization. In order to examine whether these polymorphic α1aARs have altered ligand binding characteristics, saturation binding isotherms were first performed to determine the dissociation constant (Kd) for the antagonist [^125I]HEAT, followed by competition assays designed to determine binding affinities for a series of α1aAR agonists and antagonists.

Compound: CNC[C@H](O)c1ccc(O)c(O)c1 [epinephrine, (−)-epinephrine]
- Ki increase vs WT (decrease in receptor affinity) (human α1aAR SNP V311I): ~3 fold
- decrease in affinity on mutation of F163 or F187 [1]: 10 fold

Compound: COc1cccc(OC)c1OCCNCC1COc2ccccc2O1 (stereo not drawn) [WB4101]
- affinity on substitution of F308 and F312 ([2]; Waugh et al 2001): decreased affinity

Compound: COc1ccccc1N1CCN(CCN2C(=O)CC3(CCCC3)CC2=O)CC1 [BMY7378]
- affinity on substitution of F308 and F312 ([2]; Waugh et al 2001): decreased affinity

Compound: O=C1c2ccccc2CCC1CNCCc1ccc(O)c([125I])c1 (stereo not drawn) [[^125I]HEAT, ^125I-(2-β-(4-hydroxyphenyl)-ethylamineomethyl)-tetralone]
- Kd values for [125I]HEAT compared with WT (human α1aAR SNPs [3]): not significantly different from WT
- affinity on substitution of F308 and F312 ([2]; Waugh et al 2001): not

Compound: Cc1cc(C(C)(C)C)c(O)c(C)c1CC1=NCCN1 [oxymetazoline]
- change in affinity vs WT (human α1aAR SNPs [4]): no change in the affinity

Compound: COc1cc2nc(N3CCN(C(=O)c4ccco4)CC3)nc(N)c2cc1OC [prazosin]
- affinity on substitution of F308 and F312 [2]: decreased affinity

Compound: Cc1ccc(N(CC2=NCCN2)c2cccc(O)c2)cc1 [phentolamine]
- affinity on substitution of F308 and F312 ([2]; Waugh et al 2001): not

Compound: NC[C@H](O)c1ccc(O)c(O)c1 [NE, (−)-norepinephrine]
- agonist-induced desensitization, SNP receptors vs WT (human α1aAR SNPs [5]): no difference in agonist-induced desensitization
- lower IP production after NE pretreatment (desensitization) (human α1aAR WT [6]; high-expression level): 33.5±3.2%
- lower IP production after NE pretreatment (desensitization) (human α1aAR WT [6]; low-expression level): 31.0±3.1%
- maximum IP response vs WT (human α1aAR SNPs [7]): no significant change

Compound: O=C1c2ccccc2CCC1CNCCc1ccc(O)c(I)c1 (stereo not drawn) [[^125I]HEAT, ^125I-(2-β-(4-hydroxyphenyl)-ethylamineomethyl)-tetralone]
- Kd (human α1aAR WT [8]): 0.0421 ± 0.0065 nM

Compound: COc1ccccc1N1CCN(CCCNc2c(C)c(=O)n(C)c(=O)n2C)CC1 [5-methylurapidil]
- affinity on substitution of F308 and F312 ([2]; Waugh et al 2001): decreased affinity
